{
  "source": "ChEMBL document CHEMBL1212753",
  "about": "“Inducible APOBEC3G-Vif double stable cell line as a high-throughput screening platform to identify antiviral compounds” (Antimicrob Agents Chemother, 2010)",
  "key": {"[1]": {"test": "Inhibition of HIV Vif induced human cytidine-deaminase degradation in double transgenic HEK293 cells constitutively expressing enhanced yellow fluorescent protein expressor (EYFP-A3G) fusion and Tet-Off controllable Vif protein after 24 hrs by fluorimetric assay", "format": "cell-based, Human immunodeficiency virus"}, "[2]": {"test": "Inhibition of HIV Vif by replicating virus inhibition assay", "parameters": "species or system Human immunodeficiency virus"}},
  "data": [
    {"smiles": "COc1ccccc1NC(=O)c1ccccc1Sc1ccc([N+](=O)[O-])cc1", "values": [
      {"measurement": "EC50", "setting": "[1]", "value": 5.8, "unit": "µM"},
      {"measurement": "EC50", "setting": "[2]", "value": 3, "unit": "µM"}
    ]}
  ]
}
